Results as given in PubChem BioAssay AID210 (DTP/NCI, 2004).
Toxic doses and inconclusive results are not listed. *1 amine or outer side, *2 acyl side, *3 side chain or, on linkers, in order; H or OH if unused. Where a SMILES comes first, the peptide text is derived from it. Bridges are numbered along the chain shown (N, C = ends). Roman numbers before positions name the chains, in order. [ ]: non-standard residue; d: D form. Actinocin(9to1) = Cc1c2oc3c(C)ccc(C(=O)[*:1])c3nc-2c(C(=O)[*:2])c(N)c1=O; NMeV = CN[CH](C(=O)O)C(C)C; Aze = O=C(O)[CH]1CCN1; Sar = CNCC(=O)O

System: CD2F1 mice, ip Colon 26 adenocarcinoma, median survival T/C
Test: NCI In Vivo Anticancer Drug Screen. Data for tumor model Colon 26 Adenocarcinoma (intraperitoneal) in CD2F1 (CDF1) mice
Settings: endpoint: median survival time, higher = longer survival
Description: The antitumor activity of compounds was measured in mice bearing transplantable tumors. Survival or tumor size were measured and the results are expressed as the measurement made in the treated group (T) divided by the measurement made in the vehicle treated control group (C). The tumor model used in this assay is Colon 26 Adenocarcinoma (intraperitoneal) in CD2F1 (CDF1) mice

[1] = dose: 50.0 mg/kg/injection, schedule: Q04DX003 (ip), vehicle: saline
[2] = dose: 6.25 mg/kg/injection, schedule: Q04DX003 (ip), vehicle: saline
[3] = dose: 12.5 mg/kg/injection, schedule: Q04DX003 (ip), vehicle: saline

Question: With `C1CCC2[N-]CC3CCCCC3[N-]CC3CCCCC3[N-]CC3CCCCC3[N-]CC2C1.[Cu]` (stereo not drawn) as the molecule, how does the T/C (dose: 0.63 mg/kg/injection, schedule: Q04DX003 (ip), vehicle: Klucel (hydroxypropylcellulose) (HPC)) read?
Answer: The T/C was 110 % of control.

Question: And the T/C (dose: 1.25 mg/kg/injection, schedule: Q04DX003 (ip), vehicle: Klucel (hydroxypropylcellulose) (HPC))?
Answer: The T/C was 107 % of control.

Question: What about the T/C (dose: 2.5 mg/kg/injection, schedule: Q04DX003 (ip), vehicle: Klucel (hydroxypropylcellulose) (HPC)) of the same molecule?
Answer: The T/C was 105 % of control.

Question: What about the T/C (dose: 5.0 mg/kg/injection, schedule: Q04DX003 (ip), vehicle: Klucel (hydroxypropylcellulose) (HPC)) of the same molecule?
Answer: The T/C was 111 % of control.

Question: What about the T/C (dose: 10.0 mg/kg/injection, schedule: Q04DX003 (ip), vehicle: Klucel (hydroxypropylcellulose) (HPC)) of the same molecule?
Answer: The T/C was 122 % of control.

Question: What about the T/C (dose: 20.0 mg/kg/injection, schedule: Q04DX003 (ip), vehicle: Klucel (hydroxypropylcellulose) (HPC)) of the same molecule?
Answer: Its T/C is 111 % of control.

Question: `NCCc1ccc(O)c(O)c1` was tested. Which T/C (dose: 25.0 mg/kg/injection, schedule: Q04DX003 (ip), vehicle: saline) did it give?
Answer: The T/C was 94 % of control.

Question: And the T/C [1]?
Answer: The T/C was 109 % of control.

Question: What does the source list for `CN(C)CCCNc1cccc2c1C(=O)c1c(NCCCN(C)C)cccc1C2=O`?
Answer: T/C (dose: 4.0 mg/kg/injection, schedule: Q01DX009 (ip), vehicle: saline): 111 % of control; T/C (dose: 8.0 mg/kg/injection, schedule: Q01DX009 (ip), vehicle: saline): 97 % of control; T/C (dose: 16.0 mg/kg/injection, schedule: Q01DX009 (ip), vehicle: saline): 95 % of control; T/C (dose: 32.0 mg/kg/injection, schedule: Q01DX009 (ip), vehicle: saline): 89 % of control; T/C (dose: 64.0 mg/kg/injection, schedule: Q01DX009 (ip), vehicle: saline): 87 % of control

Question: For `O=C1c2ccccc2C(=O)c2c(NCCN3CCNCC3)ccc(NCCN3CCNCC3)c21`, which T/C (dose: 4.0 mg/kg/injection, schedule: Q01DX009 (ip), vehicle: acid diluted with saline) is on record?
Answer: Its T/C is 106 % of control.

Question: And the T/C (dose: 8.0 mg/kg/injection, schedule: Q01DX009 (ip), vehicle: acid diluted with saline)?
Answer: Its T/C is 114 % of control.

Question: What about the T/C (dose: 16.0 mg/kg/injection, schedule: Q01DX009 (ip), vehicle: acid diluted with saline) of the same molecule?
Answer: The T/C was 114 % of control.

Question: `O=C(O)CC(NC(=O)CP(=O)(O)O)C(=O)O` (stereo not drawn) was tested. Which T/C (dose: 108.0 mg/kg/injection, schedule: Q04DX003 (ip), vehicle: saline) did it give?
Answer: Its T/C is 119 % of control.

Question: What about the T/C (dose: 180.0 mg/kg/injection, schedule: Q04DX003 (ip), vehicle: saline) of the same molecule?
Answer: The T/C was 115 % of control.

Question: And the T/C (dose: 180.0 mg/kg/injection, schedule: Q04DX003 (ip), vehicle: water)?
Answer: The T/C was 161 % of control.

Question: What about the T/C (dose: 300.0 mg/kg/injection, schedule: Q04DX003 (ip), vehicle: water) of the same molecule?
Answer: Its T/C is 106 % of control.

Question: And the T/C (dose: 833.0 mg/kg/injection, schedule: Q04DX003 (ip), vehicle: saline)?
Answer: Its T/C is 187 % of control.

Question: With `Cc1c2oc3c(C)ccc(C(=O)NC4C(=O)NC(C(C)C)C(=O)N5CCC5C(=O)N(C)CC(=O)N(C)C(C(C)C)C(=O)OC4C)c3nc-2c(C(=O)NC2C(=O)NC(C(C)C)C(=O)N3CCC3C(=O)N(C)CC(=O)N(C)C(C(C)C)C(=O)OC2C)c(N)c1=O` (stereo not drawn) (I: TV[Aze][Sar][NMeV] / II: TV[Aze][Sar][NMeV]; ester I:1-I:C, II:1-II:C; linker I:N-II:N via Actinocin(9to1); configuration not given here) as the molecule, how does the T/C (dose: 270.0 micrograms/kg/injection, schedule: Q04DX003 (ip), vehicle: saline + alcohol) read?
Answer: The T/C was 114 % of control.

Question: Which results are given for `C[C@]1(O)CC[C@H]2[C@@H]3CCC4=CC(=O)CC[C@]4(C)[C@@]3(F)[C@@H](O)C[C@@]21C`?
Answer: T/C (dose: 25.0 mg/kg/injection, schedule: Q04DX003 (ip), vehicle: Klucel (hydroxypropylcellulose) (HPC)): 94 % of control; T/C (dose: 50.0 mg/kg/injection, schedule: Q04DX003 (ip), vehicle: Klucel (hydroxypropylcellulose) (HPC)): 105 % of control; T/C (dose: 100.0 mg/kg/injection, schedule: Q04DX003 (ip), vehicle: Klucel (hydroxypropylcellulose) (HPC)): 108 % of control; T/C (dose: 200.0 mg/kg/injection, schedule: Q04DX003 (ip), vehicle: Klucel (hydroxypropylcellulose) (HPC)): 99 % of control; T/C (dose: 400.0 mg/kg/injection, schedule: Q04DX003 (ip), vehicle: Klucel (hydroxypropylcellulose) (HPC)): 97 % of control

Question: With `CSc1cc(=O)n2c3ccccc3c3ccnc1c32` as the molecule, how does the T/C (dose: 2.5 mg/kg/injection, schedule: Q04DX003 (ip), vehicle: saline with Tween-80) read?
Answer: Its T/C is 100 % of control.

Question: What about the T/C (dose: 5.0 mg/kg/injection, schedule: Q04DX003 (ip), vehicle: saline with Tween-80) of the same molecule?
Answer: Its T/C is 115 % of control.

Question: And the T/C (dose: 20.0 mg/kg/injection, schedule: Q04DX003 (ip), vehicle: saline with Tween-80)?
Answer: Its T/C is 151 % of control.

Question: Which results are given for `Cc1cc(=O)n2c3c(c4c(cc13)c(CN(C)C)cc(=O)n4C)OC2`?
Answer: T/C (dose: 6.25 mg/kg/injection, schedule: Q04DX002 (ip), vehicle: saline with Tween-80): 99 % of control; T/C (dose: 12.5 mg/kg/injection, schedule: Q04DX002 (ip), vehicle: saline with Tween-80): 99 % of control; T/C (dose: 25.0 mg/kg/injection, schedule: Q04DX002 (ip), vehicle: saline with Tween-80): 107 % of control; T/C (dose: 50.0 mg/kg/injection, schedule: Q04DX002 (ip), vehicle: saline with Tween-80): 102 % of control

Question: With `CCSC(=O)N1c2ccc(OC)cc2C=CC1C#N` (stereo not drawn) as the molecule, how does the T/C (dose: 12.5 mg/kg/injection, schedule: Q04DX003 (ip), vehicle: saline with Tween-80) read?
Answer: The T/C was 106 % of control.

Question: And the T/C (dose: 25.0 mg/kg/injection, schedule: Q04DX003 (ip), vehicle: saline with Tween-80)?
Answer: Its T/C is 104 % of control.

Question: What about the T/C (dose: 50.0 mg/kg/injection, schedule: Q04DX003 (ip), vehicle: saline with Tween-80) of the same molecule?
Answer: The T/C was 110 % of control.

Question: What about the T/C (dose: 100.0 mg/kg/injection, schedule: Q04DX003 (ip), vehicle: saline with Tween-80) of the same molecule?
Answer: The T/C was 107 % of control.

Question: And the T/C (dose: 175.0 mg/kg/injection, schedule: Q04DX002 (ip), vehicle: saline with Tween-80)?
Answer: The T/C was 110 % of control.

Question: What about the T/C (dose: 200.0 mg/kg/injection, schedule: Q04DX003 (ip), vehicle: saline with Tween-80) of the same molecule?
Answer: Its T/C is 109 % of control.

Question: What about the T/C (dose: 350.0 mg/kg/injection, schedule: Q04DX002 (ip), vehicle: saline with Tween-80) of the same molecule?
Answer: The T/C was 124 % of control.

Question: What about the T/C (dose: 400.0 mg/kg/injection, schedule: Q04DX003 (ip), vehicle: saline with Tween-80) of the same molecule?
Answer: Its T/C is 115 % of control.

Question: What about the T/C (dose: 700.0 mg/kg/injection, schedule: Q04DX002 (ip), vehicle: saline with Tween-80) of the same molecule?
Answer: The T/C was 100 % of control.

Question: What about the T/C (dose: 1400.0 mg/kg/injection, schedule: Q04DX002 (ip), vehicle: saline with Tween-80) of the same molecule?
Answer: The T/C was 98 % of control.

Question: How did the T/C [2] turn out when `C1CN(P2(N3CC3)=NP(N3CC3)(N3CC3)=NP(N3CC3)(N3CC3)=N2)CCO1` (stereo not drawn) was run?
Answer: The T/C was 92 % of control.

Question: And the T/C [3]?
Answer: Its T/C is 121 % of control.

Question: What about the T/C [1] of the same molecule?
Answer: Its T/C is 163 % of control.

Question: With `OCCN1CCN(CC/C=C2/c3ccccc3Sc3ccc(C(F)(F)F)cc32)CC1` as the molecule, how does the T/C (dose: 3.13 mg/kg/injection, schedule: Q04DX003 (ip), vehicle: saline) read?
Answer: Its T/C is 98 % of control.

Question: And the T/C [2]?
Answer: The T/C was 91 % of control.

Question: What about the T/C [3] of the same molecule?
Answer: Its T/C is 91 % of control.

Question: Which results are given for `CC[C@@]1(O)C[C@H](OC2CC(N(C)C)C(OC3CC(O)C(OC4CCC(=O)C(C)O4)C(C)O3)C(C)O2)c2c(cc3c(c2O)C(=O)c2c(O)cccc2C3=O)[C@H]1C(=O)OC` (stereo partly drawn)?
Answer: T/C (dose: 6.2 mg/kg/injection, schedule: Q07DX003 (iv), vehicle: water): 105 % of control; T/C (dose: 10.0 mg/kg/injection, schedule: Q07DX003 (iv), vehicle: water): 119 % of control; T/C (dose: 16.0 mg/kg/injection, schedule: Q07DX003 (iv), vehicle: water): 117 % of control

Question: `N=[N+]=CC(=O)OCC(N)C(=O)O` (stereo not drawn) was tested. Which T/C (dose: 3.12 mg/kg/injection, schedule: Q04DX003 (ip), vehicle: water) did it give?
Answer: The T/C was 113 % of control.

Question: And the T/C (dose: 6.25 mg/kg/injection, schedule: Q04DX003 (ip), vehicle: water)?
Answer: Its T/C is 113 % of control.

Question: And the T/C (dose: 12.5 mg/kg/injection, schedule: Q04DX003 (ip), vehicle: water)?
Answer: The T/C was 105 % of control.

Question: And the T/C (dose: 25.0 mg/kg/injection, schedule: Q04DX003 (ip), vehicle: water)?
Answer: Its T/C is 111 % of control.

Question: And the T/C (dose: 50.0 mg/kg/injection, schedule: Q04DX003 (ip), vehicle: water)?
Answer: The T/C was 95 % of control.

Question: `CCCCCCCCNc1cc2c3c(c1)CCCN3CCC2` was tested. Which T/C (dose: 0.37 mg/kg/injection, schedule: Q04DX003 (ip), vehicle: Klucel (hydroxypropylcellulose) (HPC)) did it give?
Answer: The T/C was 104 % of control.

Question: What about the T/C (dose: 0.75 mg/kg/injection, schedule: Q04DX003 (ip), vehicle: Klucel (hydroxypropylcellulose) (HPC)) of the same molecule?
Answer: Its T/C is 100 % of control.

Question: And the T/C (dose: 1.5 mg/kg/injection, schedule: Q04DX003 (ip), vehicle: Klucel (hydroxypropylcellulose) (HPC))?
Answer: The T/C was 102 % of control.

Question: What about the T/C (dose: 3.0 mg/kg/injection, schedule: Q04DX003 (ip), vehicle: Klucel (hydroxypropylcellulose) (HPC)) of the same molecule?
Answer: Its T/C is 109 % of control.

Question: What about the T/C (dose: 6.0 mg/kg/injection, schedule: Q04DX003 (ip), vehicle: Klucel (hydroxypropylcellulose) (HPC)) of the same molecule?
Answer: Its T/C is 106 % of control.
